# Measurements published in US9315520B2, “2-amino-6-methyl-4,4a,5,6-tetrahydropyrano[3,4-d][1,3]thiazin-8a(8H)-yl-1,3-thiazol-4-yl amides” (Pfizer Inc., priority 2014, dated 2016).
# Structures can show the parent of a compound that is named as a salt.
# Biological target: BACE1 (Homo sapiens (Human), UniProt P56817)
# Assay: BACE1 Cell-Free Assay (fluorescence polarization)
# Assay type: biochemical
# Conditions: geometric mean of 2-4 determinations unless otherwise indicated (b: ≧5; c: single determination); read-out: BACE1 Cell-free Assay IC50
# Source text: This assay measures the inhibition of the beta-secretase enzyme as it cleaves a non-native peptide.
# A synthetic APP substrate that can be cleaved by beta-secretase having N-terminal biotin and made fluorescent by the covalent attachment of Oregon Green at the Cys residue is used to assay beta-secretase activity in the presence or absence of the inhibitory compounds. […] The BACE1 enzyme is affinity purified material from conditioned media of CHO-K1 cells that have been transfected with a soluble BACE construct (BACE1deltaTM96His). […] Plates are covered and incubated for 3 hours at 37° C. […] The activity of the beta-secretase enzyme is detected by changes in the fluorescence polarization that occur when the substrate is cleaved by the enzyme.
# Chain of BACE1 (P56817 46-457): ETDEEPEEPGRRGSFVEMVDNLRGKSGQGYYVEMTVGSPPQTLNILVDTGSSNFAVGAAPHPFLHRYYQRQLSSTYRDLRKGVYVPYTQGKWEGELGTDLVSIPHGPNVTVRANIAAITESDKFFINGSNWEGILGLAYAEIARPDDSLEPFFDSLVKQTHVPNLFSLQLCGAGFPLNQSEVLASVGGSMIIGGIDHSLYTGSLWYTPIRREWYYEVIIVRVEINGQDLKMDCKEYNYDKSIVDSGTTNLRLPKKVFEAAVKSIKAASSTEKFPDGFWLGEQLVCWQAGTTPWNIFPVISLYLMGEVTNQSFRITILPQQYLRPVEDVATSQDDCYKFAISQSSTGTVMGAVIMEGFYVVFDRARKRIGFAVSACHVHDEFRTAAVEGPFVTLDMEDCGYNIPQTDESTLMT
row,SMILES,IC50 [µM]
1,"C[C@H]1C[C@H]2CSC(N)=N[C@@]2(c2nc(NC(=O)c3cc(C(F)(F)F)on3)cs2)CO1 [Example 32, N-{2-[(4aR,6S,8aR)-2-amino-6-methyl-4,4a,5,6-tetrahydropyrano[3,4-d][1,3]thiazin-8a(8H)-yl]-1,3-thiazol-4-yl}-5-(trifluoromethyl)-1,2-oxazole-3-carboxamide, trifluoroacetate salt]",1.4
2,"C[C@H]1C[C@H]2CSC(N)=N[C@@]2(c2nc(NC(=O)c3cn(C4CCC4)cn3)cs2)CO1 [Example 33, N-{2-[(4aR,6S,8aR)-2-amino-6-methyl-4,4a,5,6-tetrahydropyrano[3,4-d][1,3]thiazin-8a(8H)-yl]-1,3-thiazol-4-yl}-1-cyclobutyl-1H-imidazole-4-carboxamide]",34.1
3,"C[C@H]1C[C@H]2CSC(N)=N[C@@]2(c2nc(NC(=O)c3cc(C4CCC4)nn3C)cs2)CO1 [Example 34, N-{2-[(4aR,6S,8aR)-2-amino-6-methyl-4,4a,5,6-tetrahydropyrano[3,4-d][1,3]thiazin-8a(8H)-yl]-1,3-thiazol-4-yl}-3-cyclobutyl-1-methyl-1H-pyrazole-5-carboxamide]",1.48
4,"COCc1cc(C(=O)Nc2csc([C@]34CO[C@@H](C)C[C@H]3CSC(N)=N4)n2)no1 [Example 35, N-{2-[(4aR,6S,8aR)-2-amino-6-methyl-4,4a,5,6-tetrahydropyrano[3,4-d][1,3]thiazin-8a(8H)-yl]-1,3-thiazol-4-yl}-5-(methoxymethyl)-1,2-oxazole-3-carboxamide]",5.86
5,"C[C@H]1C[C@H]2CSC(N)=N[C@@]2(c2nc(NC(=O)c3ccc(=O)n(C)c3)cs2)CO1 [Example 36, N-{2-[(4aR,6S,8aR)-2-amino-6-methyl-4,4a,5,6-tetrahydropyrano[3,4-d][1,3]thiazin-8a(8H)-yl]-1,3-thiazol-4-yl}-1-methyl-6-oxo-1,6-dihydropyridine-3-carboxamide]",1.41
6,"Cc1nc(C(=O)Nc2csc([C@]34CO[C@@H](C)C[C@H]3CSC(N)=N4)n2)c(C(F)(F)F)o1 [Example 38, N-{2-[(4aR,6S,8aR)-2-amino-6-methyl-4,4a,5,6-tetrahydropyrano[3,4-d][1,3]thiazin-8a(8H)-yl]-1,3-thiazol-4-yl}-2-methyl-5-(trifluoromethyl)-1,3-oxazole-4-carboxamide, trifluoroacetate salt]",0.145
7,"Cc1cc(C(=O)Nc2csc([C@]34CO[C@@H](C)C[C@H]3CSC(N)=N4)n2)n(C)n1 [Example 41, N-{2-[(4aR,6S,8aR)-2-amino-6-methyl-4,4a,5,6-tetrahydropyrano[3,4-d][1,3]thiazin-8a(8H)-yl]-1,3-thiazol-4-yl}-1,3-dimethyl-1H-pyrazole-5-carboxamide, trifluoroacetate salt]",0.364
8,"CCc1nc(C(=O)Nc2csc([C@]34CO[C@@H](C)C[C@H]3CSC(N)=N4)n2)co1 [Example 42, N-{2-[(4aR,6S,8aR)-2-amino-6-methyl-4,4a,5,6-tetrahydropyrano[3,4-d][1,3]thiazin-8a(8H)-yl]-1,3-thiazol-4-yl}-2-ethyl-1,3-oxazole-4-carboxamide, trifluoroacetate salt]",0.341
9,"C[C@H]1C[C@H]2CSC(N)=N[C@@]2(c2nc(NC(=O)c3ncn(C)n3)cs2)CO1 [Example 43, N-{2-[(4aR,6S,8aR)-2-amino-6-methyl-4,4a,5,6-tetrahydropyrano[3,4-d][1,3]thiazin-8a(8H)-yl]-1,3-thiazol-4-yl}-1-methyl-1H-1,2,4-triazole-3-carboxamide, trifluoroacetate salt]",0.435
10,"C[C@H]1C[C@H]2CSC(N)=N[C@@]2(c2nc(NC(=O)c3ccc(OC(C)(F)F)cn3)cs2)CO1 [Example 44, N-{2-[(4aR,6S,8aR)-2-amino-6-methyl-4,4a,5,6-tetrahydropyrano[3,4-d][1,3]thiazin-8a(8H)-yl]-1,3-thiazol-4-yl}-5-(1,1-difluoroethoxy)pyridine-2-carboxamide]",0.185
11,"COc1cnc(C(=O)Nc2csc([C@]34CO[C@@H](C)C[C@H]3CSC(N)=N4)n2)c(C)n1 [Example 46, N-{2-[(4aR,6S,8aR)-2-amino-6-methyl-4,4a,5,6-tetrahydropyrano[3,4-d][1,3]thiazin-8a(8H)-yl]-1,3-thiazol-4-yl}-5-methoxy-3-methylpyrazine-2-carboxamide]",0.32
12,"COc1cnc(C(=O)Nc2csc([C@]34CO[C@@H](C)C[C@H]3CSC(N)=N4)n2)c(C)c1 [Example 47, N-{2-[(4aR,6S,8aR)-2-amino-6-methyl-4,4a,5,6-tetrahydropyrano[3,4-d][1,3]thiazin-8a(8H)-yl]-1,3-thiazol-4-yl}-5-methoxy-3-methylpyridine-2-carboxamide]",0.101
13,"C[C@H]1C[C@H]2CSC(N)=N[C@@]2(c2nc(NC(=O)c3ccc(OC(F)F)nc3)cs2)CO1 [Example 48, N-{2-[(4aR,6S,8aR)-2-amino-6-methyl-4,4a,5,6-tetrahydropyrano[3,4-d][1,3]thiazin-8a(8H)-yl]-1,3-thiazol-4-yl}-6-(difluoromethoxy)pyridine-3-carboxamide]",0.232
14,"Cc1nc(C(=O)Nc2csc([C@]34CO[C@@H](C)C[C@H]3CSC(N)=N4)n2)co1 [Example 49, N-{2-[(4aR,6S,8aR)-2-amino-6-methyl-4,4a,5,6-tetrahydropyrano[3,4-d][1,3]thiazin-8a(8H)-yl]-1,3-thiazol-4-yl}-2-methyl-1,3-oxazole-4-carboxamide]",0.103
15,"C[C@H]1C[C@H]2CSC(N)=N[C@@]2(c2nc(NC(=O)c3coc(C(F)(F)F)n3)cs2)CO1 [Example 50, N-{2-[(4aR,6S,8aR)-2-amino-6-methyl-4,4a,5,6-tetrahydropyrano[3,4-d][1,3]thiazin-8a(8H)-yl]-1,3-thiazol-4-yl}-2-(trifluoromethyl)-1,3-oxazole-4-carboxamide]",0.189
16,"Cc1noc(C(=O)Nc2csc([C@]34CO[C@@H](C)C[C@H]3CSC(N)=N4)n2)n1 [Example 51, N-{2-[(4aR,6S,8aR)-2-amino-6-methyl-4,4a,5,6-tetrahydropyrano[3,4-d][1,3]thiazin-8a(8H)-yl]-1,3-thiazol-4-yl}-3-methyl-1,2,4-oxadiazole-5-carboxamide]",0.098

# Same assay, conditions: read-out: BACE1 Cell-free Assay IC50
row,SMILES,IC50 [µM]
1,"C[C@H]1C[C@H]2CSC(N)=N[C@@]2(c2nc(NC(=O)c3ccc(OCC(F)F)cn3)cs2)CO1 [Example 37, N-{2-[(4aR,6S,8aR)-2-amino-6-methyl-4,4a,5,6-tetrahydropyrano[3,4-d][1,3]thiazin-8a(8H)-yl]-1,3-thiazol-4-yl}-5-(2,2-difluoroethoxy)pyridine-2-carboxamide, formate salt]",0.485
2,"CCc1cc(C(=O)Nc2csc([C@]34CO[C@@H](C)C[C@H]3CSC(N)=N4)n2)n(C)n1 [Example 39, N-{2-[(4aR,6S,8aR)-2-amino-6-methyl-4,4a,5,6-tetrahydropyrano[3,4-d][1,3]thiazin-8a(8H)-yl]-1,3-thiazol-4-yl}-3-ethyl-1-methyl-1H-pyrazole-5-carboxamide, trifluoroacetate salt]",0.369
3,"C[C@H]1C[C@H]2CSC(N)=N[C@@]2(c2nc(NC(=O)c3cnn(C)n3)cs2)CO1 [Example 40, N-{2-[(4aR,6S,8aR)-2-amino-6-methyl-4,4a,5,6-tetrahydropyrano[3,4-d][1,3]thiazin-8a(8H)-yl]-1,3-thiazol-4-yl}-2-methyl-2H-1,2,3-triazole-4-carboxamide, trifluoroacetate salt]",0.134
